In ChEMBL document CHEMBL1201862, “PubChem BioAssay data set” (2004):
“And” between values parts separate entries of the source, which are not always exact repeats. Equal values may be shown once.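 Grown in 96-well plates, cells were treated for 48 hours with each compound at five concentrations. Insufficient inhibition: endpoint recorded as highest concentration tested. GI50 is the concentration that inhibits growth by half.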 The source made the active and inactive calls. Cut-off read from the data, not from the text of the source: active = GI50 up to about 1.1 µM and inactive = higher.

How the values were obtained:
Test in all cases: DTP human tumour cell line panel, 48 h
[1] = tested on: 786-0
[2] = tested on: A498
[3] = tested on: HCT-116
[4] = tested on: HOP-92
[5] = tested on: LOX IMVI
[6] = tested on: M14
[7] = tested on: Malme-3M
[8] = tested on: NCI-H226
[9] = tested on: NCI-H23
[10] = tested on: NCI-H460
[11] = tested on: OVCAR-5
[12] = tested on: OVCAR-8
[13] = tested on: RXF 393
[14] = tested on: SK-MEL-2
[15] = tested on: SNB-19
[16] = tested on: UACC-62
[17] = tested on: UO-31
[18] = tested on: MCF7
[19] = tested on: MDA-MB-435
[20] = tested on: T47D

Measured: GI50

COc1cc(/C=C/c2ccc(OC)c(OC)c2OC)cc(OC)c1OC
inactive: [1] 21.8 µM | [2] 22 µM | [3] 14.6 µM | [4] 9.35 µM | [5] 16.1 µM | [6] 25.4 µM | [7] 20.2 µM | [8] 17.6 µM | [9] 23.6 µM | [10] 20.3 µM | [11] 15.8 µM | [12] 24.9 µM | [13] 22 µM | [14] 16.9 µM | [15] 21.3 µM | [16] 13.4 µM | [17] 14.1 µM

[O-][S+](CCc1ccccc1)Nc1ccccc1 (stereo not given)
inactive: [1] > 100 µM | [3] > 100 µM | [5] > 100 µM | [6] > 100 µM | [18] > 100 µM | [19] > 100 µM | [7] > 100 µM | [8] > 100 µM | [9] > 100 µM | [10] > 100 µM | [11] > 100 µM | [12] > 100 µM | [13] 55.5 µM | [15] > 100 µM | [17] > 100 µM

CC1OC(OC2C(OC(=O)[C@]34CCC(C)(C)C[C@H]3C3=CC[C@@H]5[C@@]6(C)CC[C@H](OC7OC(CO)C(O)C(O)C7OC7OC(CO)C(O)C(O)C7O)C(C)(C)[C@@H]6CC[C@@]5(C)[C@]3(C)CC4)OCC(O)C2O)C(O)C(O)C1OC1OCC(O)C(OC2OCC(O)C(O)C2O)C1O (stereo not given in full)
inactive: [1] 6.67 µM and 5.46 µM | [2] 2.17 µM and 2.02 µM | [3] 5.04 µM and 3.85 µM | [4] 1.92 µM and 2.15 µM | [5] 9.98 µM and 11.1 µM | [6] 1.97 µM and 1.79 µM | [19] 1.67 µM and 1.94 µM | [7] 2.49 µM and 2.52 µM | [8] 3.57 µM and 3.8 µM | [9] 2.42 µM and 3.1 µM | [10] 15.7 µM and 17.7 µM | [11] 4.86 µM and 5.37 µM | [12] 7.74 µM and 11.6 µM | [13] 9.86 µM and 6.75 µM | [14] 3.01 µM and 2.9 µM | [15] 7.89 µM and 7.41 µM | [20] 4.13 µM and 6.3 µM | [16] 2.21 µM and 2.5 µM | [17] 1.88 µM and 1.99 µM

S=c1cc(S)c2c(=S)sc3nc4ccccn4c(=S)c3c2s1
inactive: [1] 75.5 µM | [2] > 100 µM | [3] 25 µM | [4] > 100 µM | [5] 47.2 µM | [6] 35.8 µM | [7] > 100 µM | [8] > 100 µM | [9] > 100 µM | [10] 21.3 µM | [11] > 100 µM | [12] 33.3 µM | [13] > 100 µM | [14] 56.2 µM | [15] 52.5 µM | [16] 36.4 µM | [17] 72.4 µM

O=C(NCCC1CN(S(=O)(=O)C(F)(F)F)c2ccccc21)OCc1ccccc1 (stereo not given)
inactive: [1] > 100 µM | [2] > 100 µM | [3] > 100 µM | [4] 77.4 µM | [6] > 100 µM | [18] > 100 µM | [19] > 100 µM | [7] 12 µM | [9] > 100 µM | [10] > 100 µM | [11] > 100 µM | [12] > 100 µM | [13] > 100 µM | [14] > 100 µM | [15] > 100 µM | [16] > 100 µM | [17] > 100 µM

CSc1nc(SC)c2c(C(N)=S)n[nH]c2n1
inactive: [1] 28.4 µM | [2] 24.5 µM | [4] 25.2 µM | [5] 24.1 µM | [6] 31.9 µM | [7] 29.8 µM | [8] 19.9 µM | [9] 23.8 µM | [10] 23.6 µM | [12] 28.8 µM | [13] 22.8 µM | [14] 24 µM | [15] 27.1 µM | [16] 21.8 µM | [17] 19 µM

COc1ccc(N[S+]([O-])CCc2ccccc2)cc1 (stereo not given)
inactive: [1] > 100 µM | [3] > 100 µM | [5] > 100 µM | [6] > 100 µM | [18] > 100 µM | [19] > 100 µM | [7] > 100 µM | [8] > 100 µM | [9] > 100 µM | [10] > 100 µM | [11] > 100 µM | [12] > 100 µM | [13] > 100 µM | [15] > 100 µM | [17] > 100 µM

COc1ccc(-c2cc(-c3cc(F)c(Cl)cc3Cl)[nH]n2)cc1OC
inactive: [1] 19.6 µM | [3] 25.7 µM | [4] 20.6 µM | [5] 18.4 µM | [6] 75 µM | [19] 46.2 µM | [7] 30.4 µM | [8] 20.8 µM | [9] 30 µM | [10] 32.1 µM | [11] > 100 µM | [12] 34.4 µM | [13] 15.1 µM | [14] 79.6 µM | [15] 49.4 µM | [20] 28.6 µM | [17] 85.3 µM

COC(=O)c1cc2c(c(C(=O)OC)c1O)C(=O)C=CC2=O
inactive: [1] 35.7 µM | [2] > 41.1 µM | [3] > 9.1 µM | [4] 8.2 µM | [5] 36.4 µM | [6] > 44.9 µM | [7] > 40.8 µM | [8] > 9.1 µM | [9] > 31.6 µM | [10] > 50.1 µM | [11] > 40.4 µM | [12] > 21.4 µM | [13] > 29.1 µM | [14] > 9.1 µM | [15] > 42.7 µM | [16] > 9.1 µM | [17] > 42.9 µM

O=C1C(Cl)=C(Nc2ccc(S(=O)(=O)O)cc2)C(=O)c2ccccc21
inactive: [1] 27.2 µM | [3] 52.6 µM | [4] 17.3 µM | [5] 30.3 µM | [6] 21.4 µM | [18] 20.9 µM | [19] 21.7 µM | [7] 20.1 µM | [8] 34.4 µM | [9] 37.7 µM | [10] 33.6 µM | [11] > 100 µM | [12] 30.1 µM | [13] 19.7 µM | [14] 23.7 µM | [15] 24.6 µM | [16] 64.4 µM | [17] 15 µM

Cc1ccc(NC(=O)CC2C(=O)Nc3ccccc3[S+]2[O-])c(C)c1 (stereo not given)
inactive: [1] 15.1 µM | [2] 18.9 µM | [3] 8.69 µM | [4] 13.9 µM | [5] 16.4 µM | [6] 6.78 µM | [7] 18.4 µM | [8] 16.2 µM | [9] 14.9 µM | [10] 13 µM | [11] 53.7 µM | [12] 16.9 µM | [13] 8.61 µM | [14] 9.35 µM | [15] 11.7 µM | [16] 7.23 µM | [17] 19.3 µM

CC(C)c1c(O[Si](C(C)C)(C(C)C)C(C)C)c2c3c(ccc4c3c1OC4(C)C)C(C)CC2 (stereo not given)
inactive: [1] > 100 µM | [2] > 100 µM | [3] > 100 µM | [4] > 100 µM | [5] > 100 µM | [6] > 100 µM | [18] > 100 µM | [19] > 100 µM | [7] > 100 µM | [8] > 100 µM | [9] > 100 µM | [10] > 100 µM | [11] > 100 µM | [12] > 100 µM | [13] > 100 µM | [14] > 100 µM | [15] > 100 µM | [16] > 100 µM | [17] > 100 µM

COc1ccc(-c2nnc(CCCCCCCCc3nnc(-c4ccc(OC)cc4)o3)o2)cc1
inactive: [1] 57.4 µM | [2] 44.4 µM | [3] 60.7 µM | [4] 41.1 µM | [5] 91.4 µM | [6] > 100 µM | [18] > 100 µM | [19] > 100 µM | [7] > 100 µM | [8] > 100 µM | [9] > 100 µM | [10] > 100 µM | [11] > 100 µM | [12] 57.9 µM | [14] > 100 µM | [15] 36.4 µM | [17] > 100 µM

NC1=C(c2nc(-c3ccccc3)cs2)C(c2ccco2)c2c(c3ccccc3oc2=O)O1 (stereo not given)
inactive: [1] > 100 µM | [2] > 100 µM | [3] > 100 µM | [4] 53.3 µM | [5] > 100 µM | [6] > 100 µM | [18] > 100 µM | [19] > 100 µM | [7] > 100 µM | [8] 38.2 µM | [9] > 100 µM | [10] > 100 µM | [11] > 100 µM | [12] > 100 µM | [13] 40.5 µM | [14] > 100 µM | [15] > 100 µM | [16] > 100 µM | [17] > 100 µM

COc1ccc(C2CC(c3cc(C)ccc3O)=NC(N)=N2)cc1 (stereo not given)
inactive: [1] > 100 µM | [2] > 100 µM | [3] > 100 µM | [4] > 100 µM | [5] > 100 µM | [6] > 100 µM | [7] > 100 µM | [8] > 100 µM | [9] > 100 µM | [10] > 100 µM | [11] > 100 µM | [12] > 100 µM | [13] > 100 µM | [15] > 100 µM | [16] > 100 µM | [17] > 100 µM
